Reference: patent publication US10865203B2, “Ligands selective to alpha 6 subunit-containing GABAA receptors and their methods of use” (UWM Research Foundation, Inc., priority 2015, dated 2020)
Entries after “also recorded” stand apart in the source; their conditions may differ.

Key:
α6β3γ2 receptor = target: T1, α6β3γ2 receptor (Rattus norvegicus, UniProt P30191+P63079); test: Electrophysiology in Xenopus oocytes, modulation of GABA currents; format: cell-based; conditions: for Emax: EC3-6 GABA currents, read-out: maximum efficacy, enhancement of the reference current; for selectivity for α6β3γ2 over other αxβ3γ2 receptors: modulation of GABA EC3 currents
T1 construct: expressed in transfected cells; host or cells: Xenopus laevis oocytes injected with subunit mRNA (3:1:5)
T1 sequence (P30191 20-453): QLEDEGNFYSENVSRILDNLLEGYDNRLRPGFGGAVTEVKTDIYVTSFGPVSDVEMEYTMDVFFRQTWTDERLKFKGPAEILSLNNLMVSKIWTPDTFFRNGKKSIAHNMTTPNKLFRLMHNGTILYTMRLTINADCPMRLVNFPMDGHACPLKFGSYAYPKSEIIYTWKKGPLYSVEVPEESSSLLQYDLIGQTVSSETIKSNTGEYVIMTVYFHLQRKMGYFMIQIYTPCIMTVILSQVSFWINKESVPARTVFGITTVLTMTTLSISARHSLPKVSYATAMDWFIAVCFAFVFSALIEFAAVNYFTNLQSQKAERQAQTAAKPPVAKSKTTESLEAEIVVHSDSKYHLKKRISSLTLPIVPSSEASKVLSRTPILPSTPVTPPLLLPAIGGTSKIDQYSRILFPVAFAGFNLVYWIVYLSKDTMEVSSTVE
T1 sequence (P63079 26-473): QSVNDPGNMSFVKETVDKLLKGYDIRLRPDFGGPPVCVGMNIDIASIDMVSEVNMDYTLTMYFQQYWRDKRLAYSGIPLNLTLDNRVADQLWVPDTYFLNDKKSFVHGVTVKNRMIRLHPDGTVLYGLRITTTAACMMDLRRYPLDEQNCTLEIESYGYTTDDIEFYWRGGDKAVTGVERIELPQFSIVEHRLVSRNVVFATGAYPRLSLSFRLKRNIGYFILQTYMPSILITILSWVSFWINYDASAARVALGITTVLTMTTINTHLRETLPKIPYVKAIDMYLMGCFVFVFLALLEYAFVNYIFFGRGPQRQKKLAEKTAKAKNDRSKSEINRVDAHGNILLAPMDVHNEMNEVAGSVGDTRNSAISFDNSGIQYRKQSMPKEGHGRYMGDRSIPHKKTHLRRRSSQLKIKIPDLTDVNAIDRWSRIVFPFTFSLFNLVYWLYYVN
T1 sequence (P18508 39-466 partner): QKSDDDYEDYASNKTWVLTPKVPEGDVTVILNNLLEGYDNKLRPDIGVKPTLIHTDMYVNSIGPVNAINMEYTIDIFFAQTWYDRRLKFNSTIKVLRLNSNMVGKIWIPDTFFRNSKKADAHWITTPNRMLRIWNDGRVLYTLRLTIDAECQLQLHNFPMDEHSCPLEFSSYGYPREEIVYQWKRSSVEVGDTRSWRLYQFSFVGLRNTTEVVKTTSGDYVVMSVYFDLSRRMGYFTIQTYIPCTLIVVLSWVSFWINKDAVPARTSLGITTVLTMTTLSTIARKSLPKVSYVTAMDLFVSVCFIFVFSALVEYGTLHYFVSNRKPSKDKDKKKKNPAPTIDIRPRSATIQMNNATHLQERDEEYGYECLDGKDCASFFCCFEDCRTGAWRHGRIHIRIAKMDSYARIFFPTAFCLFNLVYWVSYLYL
Procedure: Mature female Xenopus laevis (Nasco, Fort Atkinson, Wis., USA) were anaesthetized in a bath of ice-cold 0.17% Tricain (Ethyl-m-aminobenzoat, Sigma-Aldrich, St. Louis, Mo., USA) before decapitation and transfer of the frog's ovary to ND96 medium (96 mM NaCl, 2 mM KCl, 1 mM MgCl2, 5 mM HEPES; pH 7.5). Following incubation in 1 mg/mL collagenase (Sigma-Aldrich, St. Louis, Mo., USA) for 30 min, stage 5 to 6 oocytes were singled out of the ovary and defolliculated using a platinum wire loop. Oocytes were stored and incubated at 18° C. in NDE medium (96 mM NaCl, 2 mM KCl, 1 mM MgCl2, 5 mM HEPES, 1.8 mM CaCl2; pH 7.5) that was supplemented with 100 U per mL-1 penicillin, 100 μg per mL-1 streptomycin and 2.5 mM pyruvate. Oocytes were injected with an aqueous solution of mRNA. A total of 2.5 ng of mRNA per oocyte was injected. Subunit ratio was 1:1:5 for αxβγ2 (x=1, 2, 3, 5) and 3:1:5 for α4/6β3γ2 and αβδ receptors. Injected oocytes were incubated for at least 36 h before electrophysiological recordings. Oocytes were placed on a nylon-grid in a bath of NDE medium. For current measurements, the oocytes were impaled with two microelectrodes (2-3MΩ), which were filled with 2 M KCl. The oocytes were constantly washed by a flow of 6 mL per min-1 NDE that could be switched to NDE containing GABA and/or drugs. Drugs were diluted into NDE from DMSO solutions resulting in a final concentration of 0.1% DMSO. […] To test for modulation of GABA induced currents by compounds, a GABA concentration that was titrated to trigger 3-5% of the respective maximum GABA-elicited current of the individual oocyte (EC3-5) was applied to the cell together with various concentrations of tested compounds. All recordings were performed at room temperature at a holding potential of −60 mV using a Warner OC-725C TEV (Warner Instrument, Hamden, Conn., USA) or a Dagan CA-1B Oocyte Clamp or a Dagan TEV-200A TEV (Dagan Corporation, Mineapolis, Minn., USA). Data were digitized using a Digidata 1322A or 1550 data acquisition system (Axon Instruments, Union City, Calif., USA), recorded using Clampex 10.5 software (Molecular Devices, Sunnyvale, Calif., USA), and analyzed using Clampfit 10.5 and GraphPad Prism 6.0 (La Jolla, Calif., USA) software. Concentration-response data were fitted using the Hill equation. Data are given as mean±SEM from at least three oocytes of two batches.
For selected test compounds full dose response curves were recorded in α1-6β3γ2 receptors. For selected compounds, dose response curves in additional receptor subtypes (α1, 4, 6β3δ, α6β1, 2γ2, α1-6β3) were also obtained. For a wider panel of compounds, a two point screening pharmacology was obtained at 1 and 10 μM compound concentrations.

[1] = Microsomal stability assay, human liver microsomes; format: in vitro ADME; conditions: for % left after 1 hr. (HLM) / half-life at 10 μM / Half-life (min) (HLM): 10 μM test compound, 0.5 mg/mL protein, 37° C.; for half-life at 10 μM: human, liver microsomes, pH 7.4, read-out: Half-life (min) (HLM); for stability in Human liver microsomes: Table 2
Summary of the method: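 Test compound at 10 μM was preincubated 5 min at 37 °C in phosphate buffer pH 7.4 with NADPH regenerating system, then started with human or mouse liver microsomes at 0.5 mg/mL protein. Samples were taken at 0–60 min and quenched in cold acetonitrile with internal standard. Slope k came from ln peak-area ratio versus time, three repeats in duplicate.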

[2] = Pharmacokinetic study in rats, plasma and brain; conditions: for total concentration in rat brain tissue: nanoemulsion or suspension; for half-life: male, Wistar, rat, ip, 10 mg/kg
Excerpt: Five pharmacokinetic studies have been performed; four in male Wistar rats and one in male Swiss mice. […] In a separate in vitro experiment, the rapid equilibrium dialysis assay was used to determine free fraction of DK-I-56-1 in rat plasma and brain tissue.

Row | Compound | Emax (α6β3γ2 receptor) | selectivity for α6β3γ2 over other αxβ3γ2 receptors (α6β3γ2 receptor) | % left after 1 hr. (HLM) [1] | half-life at 10 μM [1] | time of maximum concentration in rat brain tissue ([2]; 10 mg/kg i.p.) | total concentration in rat brain tissue ([2]; 10 mg/kg i.p.) | free concentrations in rat brain tissue ([2]; 10 mg/kg i.p., estimated from free fraction) | half-life ([2]; brain) | Half-life (min) (HLM) [1] | stability in Human liver microsomes [1] | half-life ([2]; in vivo) | maximum efficacy compared to the lead compounds (α6β3γ2 receptor) | selectivity for α6β3γ2 over other αxβ3γ2 receptors (α6β3γ2 receptor; listed as compound 6)
1 | COc1ccc(-n2nc3c4ccc(Br)cc4[nH]cc-3c2=O)cc1 [LAU 463, 7-Bromo-2-(4-methoxyphenyl)-2,5-dihydro-3H-pyrazolo[4,3-c]quinolin-3-one] | 400 to 1000% | preferentially modulate GABA currents of α6β3γ2 receptors; also recorded: pronounced selectivity for the α6β3γ2 receptor; also recorded: (efficacy-) selective for α6β3γ2 receptors | 66.86 ± 0.13% | 104 ± 4 min | – | – | – | – | – | – | – | – | –
2 | [2H]C([2H])([2H])Oc1ccc(-n2nc3c4ccc(OC)cc4[nH]cc-3c2=O)cc1 [DK-I-56-1, 7-Methoxy-2-(4-methoxy-d3-phenyl)-2,5-dihydro-3H-pyrazolo[4,3-c]quinolin-3-one] | – | – | 91.69 ± 0.09% | – | 3 h | micromolar concentrations | ≥ 100 nM | ~4 h | 520 ± 51 min | – | – | – | –
3 | COc1cccc(-n2nc3c4cc(Cl)ccc4[nH]cc-3c2=O)c1 [LAU 159, 8-Chloro-2-(3-methoxyphenyl)-2,5-dihydro-3H-pyrazolo[4,3-c]quinolin-3-one] | ~400% | preferentially modulate GABA currents of α6β3γ2 receptors; also recorded: pronounced selectivity for the α6β3γ2 receptor; also recorded: (efficacy-) selective for α6β3γ2 receptors | 81.44 ± 0.16% | 207 ± 15 min | – | – | – | – | – | ~80% | – | – | –
4 | [2H]C([2H])([2H])Oc1ccc2c3nn(-c4ccc(OC)nc4)c(=O)c-3c[nH]c2c1 [DK-I-86-1, 7-Methoxy-d3-2-(6-methoxypyridin-3-yl)-2,5-dihydro-3H-pyrazolo[4,3-c]quinolin-3-one] | – | preferentially modulates α6β3γ2 receptors; also recorded: selectivity was very good | 92.3 ± 0.13% | – | – | high submicromolar concentrations | – | – | 752.30 ± 261 min | – | ~9 h | lower | –
5 | COc1ccc(-n2nc3c4ccc(OC)cc4[nH]cc-3c2=O)cc1 [Compound 6, 7-Methoxy-2-(4-methoxyphenyl)-2,5-dihydro-3H-pyrazolo[4,3-c]quinolin-3-one] | 400 to 1000% | preferentially modulate GABA currents of α6β3γ2 receptors; also recorded: pronounced selectivity for the α6β3γ2 receptor | 86.1 ± 1.0% | 212 ± 25 min | – | high submicromolar concentrations | – | – | – | 86% | – | – | selectively modulates α6-containing receptors; also recorded: (efficacy-) selective for α6β3γ2 receptors
